Assay results from US10130633B2, “Compounds” (BAYER PHARMA AKTIENGESELLSCHAFT, priority 2013, dated 2018).

Key:
[1] = system: HCT116 FOP control reporter cell line; assay: HCT116 FOPFlash control reporter assay (FOP control vector, non-functional TCF elements); type: cell-based; settings: HCT116 FOP control reporter cells, 36 hours incubation, luciferase expression
Excerpt: In a parallel approach, HCT116 cells were cotransfected with the FOP control vector and pcDNA3. The FOP vector is identical to the TOP construct, but it contains instead of functional TCF elements a randomized, non-functional sequence. For this transfection a stable transfected cell line was generated as well.

[2] = system: constitutive active colorectal cancer cell (CRC) Wnt pathway; assay: HCT116 TOPFlash cellular reporter assay (Super TopFlash luciferase), constitutive active Wnt pathway; type: cell-based; settings: HCT116 TOP reporter cells, 36 hours incubation, luciferase expression
Procedure: In order to discover and characterize small molecules which inhibit the constitutive active colorectal cancer cell (CRC) Wnt pathway, a cellular reporter assay was employed. […] Stable transfectants were generated by cotransfection with pcDNA3 and selection of stable transfected cells with 1 mg/ml G418.

## COCCN(C)C1(C(=O)Nc2cc(C(=O)Nc3nnc(-c4ccccc4)s3)ccc2OC(F)(F)F)CC1 [Example 261, 3-[({1-[(2-methoxyethyl)(methyl)amino]cyclopropyl}carbonyl)amino]-N-(5-phenyl-1,3,4-thiadiazol-2-yl)-4-(trifluoromethoxy)benzamide]
[1]; Homo sapiens, HCT-116, 36 h
  IC50: ≥ 50 µM
[2]; Homo sapiens, HCT-116, 36 h
  IC50: 150 nM

## COC(=O)c1ccc(C(=O)Nc2nnc(-c3ccccc3)s2)cc1NC(=O)CN1CCOCC1 [Example 106, methyl 2-[(morpholin-4-ylacetyl)amino]-4-[(5-phenyl-1,3,4-thiadiazol-2-yl)carbamoyl]benzoate]
[1]; Homo sapiens, HCT-116, 36 h
  IC50: ≥ 50 µM
[2]; Homo sapiens, HCT-116, 36 h
  IC50: 285 nM

## O=C(Nc1nnc(-c2ccccc2)s1)c1ccc(OCc2ccccc2)c(NC(=O)C2(N3CCOCC3)CC2)c1 [Example 92, 4-(benzyloxy)-3-({[1-(morpholin-4-yl)cyclopropyl]carbonyl}amino)-N-(5-phenyl-1,3,4-thiadiazol-2-yl)benzamide]
[1]; Homo sapiens, HCT-116, 36 h
  IC50: ≥ 50 µM
[2]; Homo sapiens, HCT-116, 36 h
  IC50: 360 nM

## CC(C(=O)Nc1cc(C(=O)Nc2ccc(-c3ccccc3F)nc2)ccc1OC(F)(F)F)N1CCN(C2CC2)CC1 (centres unmarked) [Example 249, 3-{[2-(4-cyclopropylpiperazin-1-yl)propanoyl]amino}-N-[6-(2-fluorophenyl)pyridin-3-yl]-4-(trifluoromethoxy)benzamide]
[1]
  IC50: 38 µM
[2]
  IC50: 198 nM

## O=C(CN1CCOCC1)Nc1cc(C(=O)Nc2ccc(-c3ccccc3F)nc2)ccc1OC(F)F [Example 237, 4-(difluoromethoxy)-N-[6-(2-fluorophenyl)pyridin-3-yl]-3-[(morpholin-4-ylacetyl)amino]benzamide]
[1]; Homo sapiens, HCT-116, 36 h
  IC50: 13 µM
[2]; Homo sapiens, HCT-116, 36 h
  IC50: 139 nM

## C[C@@H]1CN(CC(=O)Nc2cc(C(=O)Nc3ccc(-c4ccccc4F)nc3)ccc2OC(F)(F)F)CCN1C [Example 164, 3-({[(3R)-3,4-dimethylpiperazin-1-yl]acetyl}amino)-N-[6-(2-fluorophenyl)pyridin-3-yl]-4-(trifluoromethoxy)benzamide]
[1]; Homo sapiens, HCT-116, 36 h
  IC50: ≥ 50 µM
[2]; Homo sapiens, HCT-116, 36 h
  IC50: 220 nM

## Cc1ccccc1-c1nnc(NC(=O)c2ccc(OC3CC3)c(NC(=O)CN3CCN(C)CC3)c2)s1 [Example 264, 4-(cyclopropyloxy)-N-[5-(2-methylphenyl)-1,3,4-thiadiazol-2-yl]-3-{[(4-methylpiperazin-1-yl)acetyl]amino}benzamide]
[1]; Homo sapiens, HCT-116, 36 h
  IC50: ≥ 50 µM
[2]; Homo sapiens, HCT-116, 36 h
  IC50: 255 nM

## CC(C(=O)Nc1cc(NC(=O)c2ccc(-c3cccc(F)c3)nc2)ccc1OC(F)(F)F)N1CC2CCC(C1)O2 (centres unmarked) [Example 220, 6-(3-fluorophenyl)-N-[3-{[2-(8-oxa-3-azabicyclo[3.2.1]oct-3-yl)propanoyl]amino}-4-(trifluoromethoxy)phenyl] nicotinamide]
[1]
  IC50: 13 µM
[2]
  IC50: 375 nM

## CN1CCN(CC(=O)Nc2cc(C(=O)Nc3nnc(-c4ccccc4)s3)ccc2C(F)(F)F)CC1 [Example 59, 3-{[(4-methylpiperazin-1-yl)acetyl]amino}-N-(5-phenyl-1,3,4-thiadiazol-2-yl)-4-(trifluoromethyl)benzamide]
[1]; Homo sapiens, HCT-116, 36 h
  IC50: ≥ 50 µM
[2]; Homo sapiens, HCT-116, 36 h
  IC50: 385 nM

## CC(C(=O)Nc1cc(C(=O)Nc2ccc(-c3cc(F)cc(F)c3)nc2)ccc1OC(F)(F)F)N1CC2CCC(C1)O2 (centres unmarked) [Example 215, N-[6-(3,5-difluorophenyl)pyridin-3-yl]-3-{[2-(8-oxa-3-azabicyclo[3.2.1]oct-3-yl)propanoyl]amino}-4-(trifluoromethoxy)benzamide]
[1]
  IC50: 3.3 µM
[2]
  IC50: 245 nM

## CC(C(=O)Nc1cc(C(=O)Nc2ccc(-c3cccc(F)c3)nc2)ccc1OC(F)(F)F)N1CCOCC1 (centres unmarked) [Example 183, N-[6-(3-fluorophenyl)pyridin-3-yl]-3-{[2-(morpholin-4-yl)propanoyl]amino}-4-(trifluoromethoxy)benzamide]
[1]
  IC50: ≥ 50 µM
[2]
  IC50: 29 nM

## CC(C(=O)Nc1cc(C(=O)Nc2nnc(-c3ccccc3)s2)ccc1CS(C)(=O)=O)N1CCN(C)CC1 (centres unmarked) [Example 231, 3-{[2-(4-methylpiperazin-1-yl)propanoyl]amino}-4-[(methylsulfonyl)methyl]-N-(5-phenyl-1,3,4-thiadiazol-2-yl)benzamide]
[1]; Homo sapiens, HCT-116, 36 h
  IC50: ≥ 50 µM
[2]
  IC50: 1020 nM

## O=C(CN1CCOCC1)Nc1cc(NC(=O)c2cnc(-c3ccccc3)s2)ccc1OC(F)(F)F [Example 252, N-{3-[(morpholin-4-ylacetyl)amino]-4-(trifluoromethoxy)phenyl}-2-phenyl-1,3-thiazole-5-carboxamide]
[1]; Homo sapiens, HCT-116, 36 h
  IC50: ≥ 50 µM
[2]; Homo sapiens, HCT-116, 36 h
  IC50: 2300 nM

## CC(C(=O)Nc1cc(NC(=O)c2ccc(-c3cc(F)cc(F)c3)nc2)ccc1OC(F)(F)F)N1CCOCC1 (centres unmarked) [Example 203, 6-(3,5-difluorophenyl)-N-[3-{[2-(morpholin-4-yl)propanoyl]amino}-4-(trifluoromethoxy)phenyl] nicotinamide]
[1]
  IC50: 15.2 µM
[2]
  IC50: 124 nM

## CCc1ccccc1-c1nnc(NC(=O)c2ccc(OC(F)(F)F)c(NC(=O)CN3CCOCC3)c2)s1 [Example 269, N-[5-(2-ethylphenyl)-1,3,4-thiadiazol-2-yl]-3-[(morpholin-4-ylacetyl)amino]-4-(trifluoromethoxy)benzamide]
[1]; Homo sapiens, HCT-116, 36 h
  IC50: ≥ 50 µM
[2]; Homo sapiens, HCT-116, 36 h
  IC50: 375 nM

## CC(C(=O)Nc1cc(NC(=O)c2ccc(-c3ccccc3F)nc2)ccc1OC(F)(F)F)N1CC2CCC(C1)O2 (centres unmarked) [Example 204, 6-(2-fluorophenyl)-N-[3-{[2-(8-oxa-3-azabicyclo[3.2.1]oct-3-yl)propanoyl]amino}-4-(trifluoromethoxy)phenyl] nicotinamide]
[1]
  IC50: 32.8 µM
[2]
  IC50: 76.5 nM

## CC(C(=O)Nc1cc(NC(=O)c2ccc(-c3cccc(F)c3)nc2)ccc1OC(F)(F)F)N1CC2CCC(C1)O2 (centres unmarked) [Example 200, 6-(3-fluorophenyl)-N-[3-{[2-(8-oxa-3-azabicyclo[3.2.1]oct-3-yl)propanoyl]amino}-4-(trifluoromethoxy)phenyl] nicotinamide]
[1]
  IC50: 6.4 µM
[2]
  IC50: 190 nM

## Cc1ccccc1-c1nnc(NC(=O)c2ccc(OC(F)(F)F)c(NC(=O)CN3CCOCC3)c2)s1 [Example 98, N-[5-(2-methylphenyl)-1,3,4-thiadiazol-2-yl]-3-[(morpholin-4-ylacetyl)amino]-4-(trifluoromethoxy)benzamide]
[1]; Homo sapiens, HCT-116, 36 h
  IC50: 26.4 µM
[2]; Homo sapiens, HCT-116, 36 h
  IC50: 87 nM

## CC(C(=O)Nc1cc(C(=O)Nc2ccc(-c3ccc(O)c(F)c3)nc2)ccc1OC(F)(F)F)N1CCOCC1 (centres unmarked) [Example 110, N-[6-(3-fluoro-4-hydroxyphenyl)pyridin-3-yl]-3-{[2-(morpholin-4-yl)propanoyl]amino}-4-(trifluoromethoxy)benzamide]
[1]; Homo sapiens, HCT-116, 36 h
  IC50: 42 µM
[2]; Homo sapiens, HCT-116, 36 h
  IC50: 450 nM

## Cc1ccccc1-c1nnc(NC(=O)c2ccc(OC3CC3)c(NC(=O)CN3CCOCC3)c2)s1 [Example 266, 4-(cyclopropyloxy)-N-[5-(2-methylphenyl)-1,3,4-thiadiazol-2-yl]-3-[(morpholin-4-ylacetyl)amino]benzamide]
[1]; Homo sapiens, HCT-116, 36 h
  IC50: ≥ 50 µM
[2]; Homo sapiens, HCT-116, 36 h
  IC50: 345 nM

## O=C(CN1CC2CCC(C1)O2)Nc1cc(C(=O)Nc2ccc(-c3cc(F)cc(F)c3)nc2)ccc1OC(F)(F)F [Example 73, N-[6-(3,5-difluorophenyl)pyridin-3-yl]-3-[(8-oxa-3-azabicyclo[3.2.1]oct-3-ylacetyl)amino]-4-(trifluoromethoxy)benzamide]
[1]; Homo sapiens, HCT-116, 36 h
  IC50: ≥ 50 µM
[2]; Homo sapiens, HCT-116, 36 h
  IC50: 98.5 nM

## CC(C(=O)Nc1cc(NC(=O)c2ccc(-c3cc(F)cc(F)c3)nc2)ccc1OC(F)(F)F)N1CC2CCC(C1)O2 (centres unmarked) [Example 218, 6-(3,5-difluorophenyl)-N-[3-{[2-(8-oxa-3-azabicyclo[3.2.1]oct-3-yl)propanoyl]amino}-4-(trifluoromethoxy)phenyl] nicotinamide]
[1]
  IC50: 15 µM
[2]
  IC50: 330 nM

## CN1CCN(CC(=O)Nc2cc(C(=O)Nc3nnc(-c4cccc(F)c4)s3)ccc2OC(F)(F)F)CC1 [Example 152, N-[5-(3-fluorophenyl)-1,3,4-thiadiazol-2-yl]-3-{[(4-methylpiperazin-1-yl)acetyl]amino}-4-(trifluoromethoxy)benzamide]
[1]; Homo sapiens, HCT-116, 36 h
  IC50: ≥ 50 µM
[2]; Homo sapiens, HCT-116, 36 h
  IC50: 200 nM

## Cc1cccc(-c2nnc(NC(=O)c3ccc(OC(F)(F)F)c(NC(=O)CN4CCOCC4)c3)s2)c1 [Example 96, N-[5-(3-methylphenyl)-1,3,4-thiadiazol-2-yl]-3-[(morpholin-4-ylacetyl)amino]-4-(trifluoromethoxy)benzamide]
[1]; Homo sapiens, HCT-116, 36 h
  IC50: ≥ 50 µM
[2]; Homo sapiens, HCT-116, 36 h
  IC50: 855 nM

## CN1CCN(CC(=O)Nc2cc(C(=O)Nc3nnc(-c4ccccc4)s3)ccc2OCC2CC2)CC1 [Example 259, 4-(cyclopropylmethoxy)-3-{[(4-methylpiperazin-1-yl)acetyl]amino}-N-(5-phenyl-1,3,4-thiadiazol-2-yl)benzamide]
[1]; Homo sapiens, HCT-116, 36 h
  IC50: ≥ 50 µM
[2]; Homo sapiens, HCT-116, 36 h
  IC50: 119 nM

## O=C(CN1CCCOCC1)Nc1cc(C(=O)Nc2nnc(-c3ccccc3)s2)ccc1OC(F)(F)F [Example 169, 3-[(1,4-oxazepan-4-ylacetyl)amino]-N-(5-phenyl-1,3,4-thiadiazol-2-yl)-4-(trifluoromethoxy)benzamide]
[1]; Homo sapiens, HCT-116, 36 h
  IC50: ≥ 50 µM
[2]; Homo sapiens, HCT-116, 36 h
  IC50: 66 nM

## CN1CCN(CC(=O)Nc2cc(C(=O)Nc3nnc(-c4ccccc4)s3)ccc2Br)CC1 [Example 94, 4-bromo-3-{[(4-methylpiperazin-1-yl)acetyl]amino}-N-(5-phenyl-1,3,4-thiadiazol-2-yl)benzamide]
[1]; Homo sapiens, HCT-116, 36 h
  IC50: ≥ 50 µM
[2]; Homo sapiens, HCT-116, 36 h
  IC50: 433 nM

## C[C@H]1CN(CC(=O)Nc2cc(C(=O)Nc3ccc(-c4ccccc4F)nc3)ccc2OC(F)(F)F)CCN1C [Example 163, 3-({[(3S)-3,4-dimethylpiperazin-1-yl]acetyl}amino)-N-[6-(2-fluorophenyl)pyridin-3-yl]-4-(trifluoromethoxy)benzamide]
[1]; Homo sapiens, HCT-116, 36 h
  IC50: ≥ 50 µM
[2]; Homo sapiens, HCT-116, 36 h
  IC50: 57 nM
